Results: patent US9304125B2, “Devices and methods for observing the cell division” (CENTRE NATIONAL DE LA RECHERCHE SCIENTIFIQUE, priority 2009, dated 2016)
“Also recorded” adds a separate entry of the source.

System: cytokinetic ring
Assay: Cytokinetic ring closure of fission yeast in egg-cup wells, observed by fluorescence microscopy (rlc1-mCherry)
Format: cell-based, Schizosaccharomyces pombe
Details: latrunculin A 2 μM; FIG. 5B
Description: Here, they illustrate results with the myosin light chain encoded by rcl1 gene fused to mCherry.
The inventors incubated the cells with latrunculin A (2 μM), a drug known to bind monomeric actin and therefore preventing its polymerisation (Ayscough, 1998).
Standard methods were used for cell growth (Moreno et al., 1991). Briefly, cells were growing exponentially in EMM4S (Moreno et al., 1991), and experiments were conducted using the same medium in the chamber.
S. pombe strains successfully used in this study were the following: • JM 207 h+ rlc1 mcherry::natR ura- leu- ade-, J. Moseley • JW 1110 h+ kanMX6-Pmyo2-mYFP-myo2 ade6-M210 leu1-32 ura4-D18, J.-Q. Wu (Wu and Pollard, 2005) • PPG 5054, h+ leu1-32 ura4-D18 pax::KanMX6 leu1+::GFPpax+, Pilar Perez Lab (Pinar et al., 2008). • JW 977 h+ cdc15-mYFP-kanMX6 ade6-M210 leu1-32 ura4-D18, J.-Q. Wu (Wu and Pollard, 2005) • 519 h− bgs1Δ::ura4^+ Pbgs1^+::GFP-bgs1^+:leu1^+ leu1-32 ura4-Δ18 his3-Δ1, Pilar Perez (Cortes et al., 2002)
Cells were grown in exponential phase at 32° C. At about 0.5 optical density, the EMM4S medium was removed twice by centrifugation at 1000 g for 2 min followed by cells resuspension in a EMM-N medium (Moreno et al., 1991): cells were nitrogen starved at 32° C. for 5 hours. Cells were then pelleted with a 2 min centrifugation at 1000 g and they were resuspended in EMM4S. The egg cup surface (face up) was carefully placed on the top of a home-made plastic holder deposited in a 50 ml tube (adapted from the set-up used by (Allen et al., 2007)); 13 ml of EMM4S was poured in the tube. Cells were exposed to sonication 30 s (Branson 200, Ultrasonic Cleaner) to separate aggregated cells, and 1 ml of cell suspension was added to the 50 ml tube. Cells were then centrifuged at 500 g for 2 mn on the egg-cup surface resting on the special plastic holder. The egg cup surface was carefully removed from the holder and it was inserted in a home-made chamber (see FIG. 2D). The sample preparation was achieved by screwing a top metal piece onto the surface holder. […]

C/C1=C/C(=O)O[C@@H]2C[C@@H](CC[C@H](C)/C=C\C=C\CC1)O[C@@](O)([C@@H]1CSC(=O)N1)C2 [latrunculin A]
closure of the cytokinetic ring: the closure was stopped
cytokinetic ring integrity: the ring disassembled, and this led to the clustering of myosin into discrete patches; also recorded: disrupts the ring
